In patent publication US20220089589A1, “SMALL MOLECULE DEGRADERS OF FKBP12 VIA RECRUITMENT OF VON HIPPEL-LINDAU E3 UBIQUITIN LIGASE (VHL) E3 UBIQUITIN LIGASE, AND USES IN dTAG SYSTEMS” (DANA-FARBER CANCER INSTITUTE, INC., priority 2019, published 2022):
“Also recorded” adds a separate entry of the source.

How the values were obtained:
Assay type in all cases: cell-based
[1] = test system: LACZ-FKBP12^F36V; assay: Immunoblotting of PATU-8902 LACZ-FKBP12^F36V clone (Example 6); details: 50 or 500 nM, 4 hrs
Procedure: (§1) PATU-8902 LACZ-FKBP12^F36V clone was plated in 6-well format, allowed to adhere overnight, and treated with 50 nM and 500 nM dTAG molecules for 4 hrs. Following treatment, cells were lysed in RIPA buffer on ice for 60 minutes. Lysates were clarified by centrifugation at 20,000×g for 10 minutes at 4° C. Immunoblotting was performed to determine changes in protein levels with an Odyssey CLx Imager. The indicated antibodies were employed including HA (hemagglutinin) to monitor LACZ-FKBP12^F36V degradation and α-TUBULIN as a loading control.

[2] = test system: PATU-8902 FKBP12^F36V-KRAS^G12V; KRAS^−/− clone; assay: Anti-proliferation via CellTiter-Glo, PATU-8902 FKBP12^F36V-KRAS^G12V; KRAS^−/− clone (Example 12); details: 0.000063-2 μM, 72 hrs
Procedure: (§2) PATU-8902 LACZ-FKBP12^F36V or FKBP12^F36V-KRAS^G12V; KRAS^−/− clones were plated in 384-well format, allowed to adhere overnight, and treated with various dTAG molecules from compound stock plates using a JANUS® Workstation pin tool for 72 hrs. To measure cell viability, Cell Tilter-Glo® was added to wells for 15 minutes at r.t. and luminescence was measured on an EnVision™ 2104 Multilabel Plate Reader.

[3] = test system: pAKT; assay: Immunoblotting of PATU-8902 FKBP12^F36V-KRAS^G12V; KRAS^−/− clone (Example 8), AKT signaling; details: 50 or 500 nM, 4 hrs
Procedure: as §1, with “FKBP12^F36V-KRAS^G12V; KRAS^−/−” for “LACZ-FKBP12^F36V”, “HA” for “HA (hemagglutinin)”, “FKBP12^F36V-KRAS^G12V degradation, total and phosphorylated ERK to evaluate changes in ERK signaling, total and phosphorylated AKT to evaluate changes in AKT signaling” for “LACZ-FKBP12^F36V degradation”

[4] = test system: pERK; assay: Immunoblotting of PATU-8902 FKBP12^F36V-KRAS^G12V; KRAS^−/− clone (Example 8), ERK signaling; details: 50 or 500 nM, 4 hrs
Procedure: as §1, with “FKBP12^F36V-KRAS^G12V; KRAS^−/−” for “LACZ-FKBP12^F36V”, “HA” for “HA (hemagglutinin)”, “FKBP12^F36V-KRAS^G12V degradation, total and phosphorylated ERK to evaluate changes in ERK signaling, total and phosphorylated AKT to evaluate changes in AKT signaling” for “LACZ-FKBP12^F36V degradation”

[5] = test system: PATU-8902 FKBP12^F36V-KRAS^G12V; KRAS^−/− clone; assay: Cell transformation by growth in ultra-low attachment conditions, PATU-8902 FKBP12^F36V-KRAS^G12V; KRAS^−/− clone (Example 13); details: 0.000063-2 μM, 120 hrs
Procedure: (§3) PATU-8902 LACZ-FKBP12^F36V or FKBP12^F36V-KRAS^G12V; KRAS^−/− clones were plated in 384-well format in ultra-low attachment conditions, allowed to form 3D-spheroids overnight, and treated with various dTAG molecules from compound stock plates using a JANUS® Workstation pin tool for 120 hrs. To measure cell transformation, Cell Tilter-Glo® was added to wells for 15 minutes at room temperature and luminescence was measured on an EnVision™ 2104 Multilabel Plate Reader.

[6] = test system: FKBP12^F36V-KRAS^G12V; assay: Immunoblotting of PATU-8902 FKBP12^F36V-KRAS^G12V; KRAS^−/− clone (Example 8), HA; details: 50 or 500 nM, 4 hrs
Procedure: as §1, with “FKBP12^F36V-KRAS^G12V; KRAS^−/−” for “LACZ-FKBP12^F36V”, “HA” for “HA (hemagglutinin)”, “FKBP12^F36V-KRAS^G12V degradation, total and phosphorylated ERK to evaluate changes in ERK signaling, total and phosphorylated AKT to evaluate changes in AKT signaling” for “LACZ-FKBP12^F36V degradation”

[7] = test system: NIH/3T3 cells expressing FKBP12^F36V-KRAS^G12V; assay: Anti-proliferation in NIH/3T3 cells expressing FKBP12^F36V-KRAS^G12V by ATPlite assay; details: 0.00063-20 μM, 72 hrs, NIH/3T3 expressing FKBP12^F36V-KRAS^G12V
Procedure: (§4) NIH/3T3 cells, that were mock transduced (control) or stably expressing with FKBP12^F36V-KRAS^G12V, were plated in 384-well format, allowed to adhere overnight, and treated with various dTAG molecules from compound stock plates using a JANUS® Workstation pin tool for 72 hrs. To measure cell viability, ATPlite™ was added to wells for 15 minutes at room temperature and luminescence was measured on an EnVision™ 2104 Multilabel Plate Reader.

[8] = test system: control NIH/3T3 cells; assay: Anti-proliferation in mock transduced (control) NIH/3T3 cells by ATPlite assay; details: 0.00063-20 μM, 72 hrs, at high doses
Procedure: as §4

[9] = test system: FKBP12^F36V-GFP; assay: Immunoblotting of EWS502 FKBP12^F36V-GFP cells; details: dTAG-13 10-5000 nM, compound 1 50-5000 nM, 24 hrs
Procedure: (§5) EWS502 FKBP12^F36V-GFP and FKBP12^F36V-EWS/FLI; EWS/FLP^−/− cells were plated in 6-well format, allowed to adhere overnight, and treated with (10-5000 nM) dTAG-13 or (50-5000 nM) compound 1 for 24 hrs. Following treatment, cells were lysed in Cell Lysis Buffer (Cell Signaling Technology®) on ice for 60 minutes. Lysates were clarified by centrifugation at 20,000×g for 10 minutes at 4° C. Immunoblotting was performed to determine changes in protein levels upon incubation with the appropriate horseradish peroxidase-conjugated secondary antibodies. The indicated antibodies were employed including HA to monitor FKBP12^F36V-GFP or FKBP12^F36V-EWS/FLI degradation and Vinculin as a loading control.

[10] = test system: PATU-8902 LACZ-FKBP12^F36V clone; assay: Cell transformation by growth in ultra-low attachment conditions, PATU-8902 LACZ-FKBP12^F36V control clone (Example 13); details: 0.000063-2 μM, 120 hrs
Procedure: as §3

[11] = test system: PATU-8902 LACZ-FKBP12^F36V clone; assay: Anti-proliferation via CellTiter-Glo, PATU-8902 LACZ-FKBP12^F36V control clone (Example 12); details: 0.000063-2 μM, 72 hrs
Procedure: as §2

[12] = test system: FKBP12^F36V-KRAS^G12V; assay: Immunoblotting of 293T^VHL−/− FKBP12^F36V-KRAS^G12V cells; details: 50 or 500 nM, 24 hrs
Procedure: (§6) 293T^WT or 293T^VHL−/− FKBP12^F36V-KRAS^G12V cells were plated in 6-well format, allowed to adhere overnight, and treated with 50 nM and 500 nM dTAG molecules for 24 hrs. Following treatment, cells were lysed in RIPA buffer on ice for 60 minutes. Lysates were clarified by centrifugation at 20,000×g for 10 minutes at 4° C. Immunoblotting was performed to determine changes in protein levels with an Odyssey CLx Imager. The indicated antibodies were employed including HA to monitor FKBP12^F36V-KRAS^G12V degradation and α-TUBULIN as a loading control.

[13] = test system: PATU-8902 FKBP12^F36V-KRAS^G12V; KRAS^−/− clone; assay: Anti-proliferation via CellTiter-Glo, PATU-8902 FKBP12^F36V-KRAS^G12V; KRAS^−/− clone (Example 11); details: 0.00063-20 μM, 72 hrs
Procedure: (§7) PATU-8902 LACZ-FKBP12^F36V or FKBP12^F36V-KRAS^G12V; KRAS^−/− clones were plated in 384-well format, allowed to adhere overnight, and treated with various dTAG molecules from compound stock plates using a JANUS® Workstation pin tool for 72 hrs. To measure cell viability, CellTilter-Glo® was added to wells for 15 minutes at r.t. and luminescence was measured on an EnVision™ 2104 Multilabel Plate Reader.

[14] = test system: FKBP12^F36V-EWS/FLI; assay: Immunoblotting of EWS502 FKBP12^F36V-EWS/FLI; EWS/FLI^−/− cells; details: dTAG-13 10-5000 nM, compound 1 50-5000 nM, 24 hrs, EWS502 cells
Procedure: as §5

[15] = test system: FKBP12^F36V-KRAS^G12V; assay: Immunoblotting of 293T^WT FKBP12^F36V-KRAS^G12V cells; details: 50 or 500 nM, 24 hrs
Procedure: as §6

[16] = test system: PATU-8902 LACZ-FKBP12^F36V clone; assay: Anti-proliferation via CellTiter-Glo, PATU-8902 LACZ-FKBP12^F36V control clone (Example 11); details: 0.00063-20 μM, 72 hrs
Procedure: as §7

Structure (SMILES)	degradation of LACZ-FKBP12^F36V (immunoblot) [1]	anti-proliferative effects / loss of cell viability (% DMSO control) [2]	pAKT levels (immunoblot) [3]	pERK levels (immunoblot) [4]	loss of cell transformation (3D-spheroids, % DMSO control) [5]	degradation of FKBP12^F36V-KRAS^G12V (immunoblot) [6]	anti-proliferative effects / loss of cell viability (% DMSO control) [7]	anti-proliferative effects on control cells [8]	degradation of FKBP12^F36V-GFP (immunoblot) [9]	effects on cell transformation of LACZ-FKBP12^F36V control clone [10]	anti-proliferative effects on LACZ-FKBP12^F36V control clone [11]	degradation of FKBP12^F36V-KRAS^G12V in 293T^VHL−/− cells (immunoblot) [12]	anti-proliferative effects / loss of cell viability (% DMSO control) [13]	degradation of FKBP12^F36V-EWS/FLI (immunoblot) [14]	degradation of FKBP12^F36V-KRAS^G12V in 293T^WT cells (immunoblot) [15]	anti-proliferative effects on LACZ-FKBP12^F36V control clone [16]
CC[C@H](C(=O)N1CCCC[C@H]1C(=O)O[C@H](CCc1ccc(OC)c(OC)c1)c1ccccc1OCC(=O)NCCCCCCC(=O)N[C@H](C(=O)N1C[C@@H](O)C[C@@H]1C(=O)N[C@@H](C)c1ccc(-c2scnc2C)cc1)C(C)(C)C)c1cc(OC)c(OC)c(OC)c1 [Compound 2, (R)-3-(3,4-dimethoxyphenyl)-1-(2-(2-((7-(((S)-1-((2R,4S)-4-hydroxy-2-(((S)-1-(4-(4-methylthiazol-5-yl)phenyl)ethyl)carbamoyl)pyrrolidin-1-yl)-3,3-dimethyl-1-oxobutan-2-yl)amino)-7-oxoheptyl)amino)-2-oxoethoxy)phenyl)propyl (S)-1-((S)-2-(3,4,5-trimethoxyphenyl)butanoyl)piperidine-2-carboxylate]	Lack of degradation; also recorded: no effect	little to no loss of viability; also recorded: little to no toxicity	no effect	no effect	little to no loss of viability; also recorded: limited toxicity at high doses	Lack of degradation; also recorded: no effect	–	–	–	–	–	–	–	–	–	–
CC[C@H](C(=O)N1CCCC[C@H]1C(=O)O[C@H](CCc1ccc(OC)c(OC)c1)c1ccccc1OCC(=O)NCCCCCCOc1cccc2c1C(=O)N(C1CCC(=O)N(C)C1=O)C2=O)c1cc(OC)c(OC)c(OC)c1 (stereo partly drawn) [Compound 5]	Lack of degradation; also recorded: no effect	little to no loss of viability; also recorded: little to no toxicity	no effect	no effect	little to no loss of viability; also recorded: limited toxicity at high doses	Lack of degradation; also recorded: no effect	–	–	–	–	–	–	–	–	–	–
CC[C@H](C(=O)N1CCCC[C@H]1C(=O)O[C@H](CCc1ccc(OC)c(OC)c1)c1ccccc1OCC(=O)NCCOCCOCCOCC(=O)N[C@H](C(=O)N1C[C@H](O)C[C@H]1C(=O)NCc1ccc(-c2scnc2C)cc1)C(C)(C)C)c1cc(OC)c(OC)c(OC)c1 [dTAG-12]	–	–	–	–	–	–	Effective loss of viability; also recorded: potent anti-proliferative effects	Limited anti-proliferative effects	–	–	–	–	–	–	–	–
CC[C@H](C(=O)N1CCCC[C@H]1C(=O)O[C@H](CCc1ccc(OC)c(OC)c1)c1ccccc1OCC(=O)NCCCCCCOc1cccc2c1C(=O)N(C1CCC(=O)NC1=O)C2=O)c1cc(OC)c(OC)c(OC)c1 (stereo partly drawn) [dTAG-13, reference compound]	rapid degradation; also recorded: potent degradation	Effective loss of viability; also recorded: potent anti-proliferative effects	pronounced diminished levels	pronounced diminished levels	Effective loss of viability; also recorded: potent loss of cell transformation	potent degradation	Effective loss of viability; also recorded: potent anti-proliferative effects	–	Degradation of GFP (control) is observed; also recorded: potent degradation	limited effects	limited effects	Degradation of mutant KRAS was observed; also recorded: potent degradation	Effective loss of viability; also recorded: potent anti-proliferative effects	not	potent degradation	limited effects
CC[C@H](C(=O)N1CCCC[C@H]1C(=O)O[C@H](CCc1ccc(OC)c(OC)c1)c1ccccc1OCC(=O)NCCOCCOCCOCC(=O)N[C@H](C(=O)N1C[C@H](O)C[C@H]1C(=O)N[C@@H](C)c1ccc(-c2scnc2C)cc1)C(C)(C)C)c1cc(OC)c(OC)c(OC)c1 [dTAG-63]	–	–	–	–	–	–	Effective loss of viability; also recorded: potent anti-proliferative effects	Limited anti-proliferative effects	–	–	–	–	Effective loss of viability; also recorded: potent anti-proliferative effects	–	–	limited effects
